Measurements: patent US12213992B2, “Iron containing composition and use thereof” (RENAPHARMA AB, priority 2018, dated 2025)

Assays:
[1] = system: reduced GSH; test: Toxicity study: reduced GSH levels (ELISA); type: in vivo, CD1 mice; conditions: anaemic mice, 20 mM Fe, 100 μL, 10 days
Description: (§1) After the last dose, the mice were provided with water ad libitum for 18 hours before sacrifice and collection of tissues. Tissues were stored at −70° C. until subjection to various toxicological investigations. […] Tests were made with respect to the following parameters: • 1. Lipid peroxidation (MDA measurement) • 2. GSH levels • 3. Catalase levels • 4. Non-heme iron levels • 5. Plasma ferritin levels Methodology
(§2) The collection of the duodenum was achieved by taking the first 5 cm after the pylorus. The section was opened transversally, and the mucosa was removed using a glass slide.
The assay was performed according to manufacturer's instructions.

[2] = system: ferritin; test: Plasma ferritin levels (mouse ELISA kit); type: in vivo, CD1 mice; conditions: anaemic mice, 20 mM Fe, 100 μL, 10 days
Description: as §1
In this assay, the ferritin present in plasma samples reacts with the anti-Ferritin antibodies which have been adsorbed to the surface of polystyrene microliter wells. The assay was performed with a kit provided by Abcam company (Catalogue number, ab157713 Ferritin, mouse ELISA kit). The plasma samples were diluted 1:40 with the assay diluent provided in the kit. The amount of enzyme bound in the complex was measured by the addition of a chromo-genic substrate, 3,3′,5,5′-tetramethylbenzidine (TMB). The colorimetric reaction was measured at 450 nm in a plate reader. The quantity of ferritin in the test sample was interpolated from the standard curve with known concentrations of ferritin.

[3] = Non-heme iron levels in liver; type: in vivo, CD1 mice; conditions: anaemic mice, 20 mM Fe, 100 μL, 10 days
Description: as §1
Non-heme iron was assayed according to the method of Foy et al. (Analytical Biochem. 1967; 18:559-563) as modified by Simpson & Peters (Br J Nutr. 1990; 63:79-89). Liver tissue was washed in ice-cold PBS, weighted (70 mg), and homogenized (1:5 w:v) in 0.15M NaCl-HEPES buffer (pH 7.4) with a glass Dounce homogenizer. 100 μl of the resulted extracted was boiled with 200 μl of TCA-sodium pyrophosphate and boil for 10 min, centrifuged at 10,000 RPM and collected the supernatant, the boiled extraction and centrifugation was repeated twice. From the total supernatant collection, 200 μL was mixed with 100 μL 4 of 0.23M ascorbic acid, 80 µL of 10 mM ferrozine and 420 μL of 2.0 M sodium-buffer acetate (pH 4.8). All samples were measured at 562 nm against the blank and compare with standard values.

[4] = system: malondialdehyde (MDA); test: Toxicity study: lipid peroxidation (MDA measurement); type: in vivo, CD1 mice; conditions: anaemic mice, 20 mM Fe, 100 μL, 10 days; ANOVA one-way test
Description: as §1, §2
Lipid peroxidation was measured by the detection of the endpoint product malondialdehyde (MDA), using the MDA microplate assay kit from Cohesion Biosciences (catalog number CAK1011). Liver tissue (70 mg) or duodenal mucosa (20 mg) were weighed and homogenized in assay buffer according with instructions of the kit manufacturer. All the samples were kept in ice during the assay. The dye reagent (Thiobarbituric acid) was brought at room temperature 30 min before the assay performance. […] The protein concentration of the extracts was analysed with the Bradford assay protocol and the MDA values were normalized against protein content.

[5] = Tissue distribution of 59Fe; type: in vivo, mouse; conditions: iron deficient mice, 4 hours after oral gavage, compared with the other iron source
Description: Anaemic mice were generated using the method of Latunde-Dada et al, J. Nutr. 144 (2014) 1896-902. Mice (3 weeks old) were split into 4 groups (n=6), two groups were fed with normal iron diet (48 mg iron/Kg) and the other two with iron deficient diet (3 mg iron/kg) for 6 weeks. Before the experiment haemoglobin levels were measured to confirm the differences between the normal group and the iron deficient groups. The day before the treatment with ^59Fe labelled iron, all the mice were deprived of food overnight with water ad libitum. Normal (non anaemic) and iron deficient (anaemic) mice were gavaged with either 100 μl of the formulation of Example 4, or with ^59FeSO4-ascorbic acid (1:1) ([Fe]=21 mM). Four hours after the oral gavage the mice were sacrificed and tissues collected.
The tissues from the ^59Fe uptake study were used for an investigation of iron distribution (FIGS. 4-7). In the normal animals the majority of the iron is in the “carcase” (probably in blood and lymph).

[6] = system: anaemic mice; test: Haemoglobin levels in anaemic mice after treatment with oral iron (haemoglobin repletion study); type: in vivo, CD1 mice; conditions: 10 days of gavage (Fe; 21 mM, 100 μl)
From the text: The procedure for this study was adopted from well established techniques (Kajarabille et al, Brit. J. Nutrition, 117 (2017) 767-774) (FIG. 8). There was a change of haemoglobin levels between the anaemic (12.8±2.4 g/dL) and normal animals (19.55±2.4 g/dL) (FIG. 9).
Male CD1 mice (3 weeks of age) were made Fe deficient by feeding a low-iron diet of 3-mg Fe/Kg diet based on the modified AIN-76A purified rodent diet (TD.80396; Harlan Teklad) for 3 weeks (i.e., until they were 6 weeks of age). Another group of mice were placed on a normal iron-sufficient diet (48-mg Fe/Kg diet) (TD.80394; Harlan Teklad) to serve as control. The diets were of identical composition except that the iron-sufficient diet contained iron added as ferric citrate. After this, blood was withdrawn from the tails to determine the initial Hb concentrations of the mice. The Fe-deficient mice were then divided into the treatment groups based on similar Hb concentrations. […] After the 10 days, the mice were weighed, anaesthetized, and blood samples were taken for Hb, serum iron, and serum ferritin determinations. The mice were then killed by anaesthesia followed by neck dislocation, and the spleen, duodenum, kidney, and liver samples were excised, snap frozen in liquid nitrogen, and stored at −70° C. until further analysis.

[7] = system: catalase; test: Toxicity study: catalase levels; type: in vivo, CD1 mice; conditions: anaemic mice, 20 mM Fe, 100 μL, 10 days; ANOVA one-way test
Description: as §1, §2
The activity of catalase enzyme was detected by using a Catalase Kit (Arbor assay company, Catalogue number K033-H1). Mice tissues were rinsed in PBS to take out the excess of blood and weighed (100 mg of liver or 20 mg duodenal mucosa). The procedure of sample preparation and assay was performed according to manufacturing instructions. The tissue samples were homogenized in ice-cold assay medium with a glass homogenizer, centrifuged at 10,000×g for 15 min at 4 degrees. The supernatant was collected to continue with the assay. A standard with catalase-hydrogen peroxide enzyme was measured within 30 min after reconstitution. The produced colour reaction was read at 450 nm using a plate reader.

In the case of `O=S(=O)([O-])[O-].[Fe+2]` [FeSO4], the “concentration of reduced GSH in liver” value ([1]; ANOVA one-way test) was “no statistical differences between the groups”, the “concentration of reduced GSH in duodenal mucosa” value ([1]; P≤0.05, ANOVA one-way test) was “higher levels of GSH in duodenum in comparison with the untreated group” and the plasma ferritin levels [2] was “lower than that of normal mice”. For the same molecule, the “non-heme iron levels in liver, Mean” value [3] was 0.3637 nmol/mg, the “concentration of malondialdehyde (MDA) in duodenal mucosa” value [4] was “no statistical differences between the groups” and the “concentration of malondialdehyde (MDA) in liver” value [4] was “no statistical differences between the groups”. For the same molecule, the “Fe distribution in the liver” value [5] was “greater distribution of Fe in the liver”, the haemoglobin levels [6] was “increased the haemoglobin levels in anaemic mice to those of normal mice” and the “catalase activity in duodenal mucosa” value [7] was “no statistical differences between the groups”. The “catalase activity in liver” value [7] was “no statistical differences between the groups”.
